Laboratory results reported in ChEMBL document CHEMBL1145498, “A systematic interaction map of validated kinase inhibitors with Ser/Thr kinases” (Proc Natl Acad Sci U S A, 2007).

How the values were obtained:
[1] = molecular target: Calcium/calmodulin-dependent protein kinase type II subunit gamma (Homo sapiens) (UniProt Q13555)
[2] = molecular target: Glycogen synthase kinase-3 beta (Homo sapiens, UniProt P49841)
[3] = molecular target: Dual specificity mitogen-activated protein kinase kinase 2 (Homo sapiens, UniProt P36507)
Dual specificity mitogen-activated protein kinase kinase 2, sequence (P36507 whole entry): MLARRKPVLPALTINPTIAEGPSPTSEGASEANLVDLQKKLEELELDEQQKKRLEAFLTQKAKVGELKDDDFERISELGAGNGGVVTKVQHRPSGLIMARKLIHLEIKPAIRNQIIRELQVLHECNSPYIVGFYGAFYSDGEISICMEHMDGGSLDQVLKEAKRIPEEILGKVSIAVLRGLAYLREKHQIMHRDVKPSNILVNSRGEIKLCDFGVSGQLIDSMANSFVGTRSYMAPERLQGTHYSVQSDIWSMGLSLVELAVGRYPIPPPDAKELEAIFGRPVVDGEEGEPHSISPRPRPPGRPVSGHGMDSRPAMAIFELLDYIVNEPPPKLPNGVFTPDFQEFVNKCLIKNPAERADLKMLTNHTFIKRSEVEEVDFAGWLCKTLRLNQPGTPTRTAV

[4] = molecular target: Serine/threonine-protein kinase PAK 6 (Homo sapiens) (UniProt Q9NQU5)
Serine/threonine-protein kinase PAK 6 (Homo sapiens), sequence (Q9NQU5 whole entry, looked up): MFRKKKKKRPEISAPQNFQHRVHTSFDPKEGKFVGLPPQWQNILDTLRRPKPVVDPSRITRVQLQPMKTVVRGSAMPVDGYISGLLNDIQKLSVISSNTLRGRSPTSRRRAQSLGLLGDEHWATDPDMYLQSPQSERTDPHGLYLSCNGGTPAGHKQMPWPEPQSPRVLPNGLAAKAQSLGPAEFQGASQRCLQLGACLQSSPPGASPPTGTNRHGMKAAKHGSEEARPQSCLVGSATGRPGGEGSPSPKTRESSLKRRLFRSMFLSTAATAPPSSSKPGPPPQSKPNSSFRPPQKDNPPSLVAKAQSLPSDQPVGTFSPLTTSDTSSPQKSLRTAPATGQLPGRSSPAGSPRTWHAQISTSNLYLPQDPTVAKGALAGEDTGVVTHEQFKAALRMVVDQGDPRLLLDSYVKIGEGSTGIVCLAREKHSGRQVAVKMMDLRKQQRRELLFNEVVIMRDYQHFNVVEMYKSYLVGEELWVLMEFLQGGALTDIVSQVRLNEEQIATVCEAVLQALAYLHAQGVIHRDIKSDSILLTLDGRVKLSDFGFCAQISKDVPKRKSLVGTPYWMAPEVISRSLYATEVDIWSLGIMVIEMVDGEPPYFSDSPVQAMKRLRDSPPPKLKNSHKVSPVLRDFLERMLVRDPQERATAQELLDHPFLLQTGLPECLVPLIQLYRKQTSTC

[5] = molecular target: Serine/threonine-protein kinase PLK1 (Homo sapiens) (UniProt P53350)
[6] = molecular target: Calcium/calmodulin-dependent protein kinase type II subunit delta (Homo sapiens) (UniProt Q13557)
Calcium/calmodulin-dependent protein kinase type II subunit delta (Homo sapiens), sequence (Q13557 whole entry): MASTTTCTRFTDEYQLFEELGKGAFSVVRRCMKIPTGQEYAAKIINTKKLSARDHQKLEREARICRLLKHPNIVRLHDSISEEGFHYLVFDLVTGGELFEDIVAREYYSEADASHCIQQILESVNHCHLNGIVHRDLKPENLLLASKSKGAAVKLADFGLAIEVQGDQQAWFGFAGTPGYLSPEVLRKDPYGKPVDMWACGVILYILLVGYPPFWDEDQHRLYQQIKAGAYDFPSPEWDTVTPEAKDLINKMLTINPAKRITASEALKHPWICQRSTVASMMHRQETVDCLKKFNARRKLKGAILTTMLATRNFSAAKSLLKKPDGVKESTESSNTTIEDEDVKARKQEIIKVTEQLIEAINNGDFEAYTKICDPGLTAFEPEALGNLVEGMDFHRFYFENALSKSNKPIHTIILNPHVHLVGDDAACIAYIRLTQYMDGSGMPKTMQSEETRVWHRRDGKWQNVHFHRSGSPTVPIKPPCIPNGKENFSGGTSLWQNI

[7] = molecular target: Serine/threonine-protein kinase 26 (Homo sapiens) (UniProt Q9P289)
[8] = molecular target: Calcium/calmodulin-dependent protein kinase type II subunit alpha (Homo sapiens) (UniProt Q9UQM7)
Calcium/calmodulin-dependent protein kinase type II subunit alpha (Homo sapiens), sequence (Q9UQM7 whole entry): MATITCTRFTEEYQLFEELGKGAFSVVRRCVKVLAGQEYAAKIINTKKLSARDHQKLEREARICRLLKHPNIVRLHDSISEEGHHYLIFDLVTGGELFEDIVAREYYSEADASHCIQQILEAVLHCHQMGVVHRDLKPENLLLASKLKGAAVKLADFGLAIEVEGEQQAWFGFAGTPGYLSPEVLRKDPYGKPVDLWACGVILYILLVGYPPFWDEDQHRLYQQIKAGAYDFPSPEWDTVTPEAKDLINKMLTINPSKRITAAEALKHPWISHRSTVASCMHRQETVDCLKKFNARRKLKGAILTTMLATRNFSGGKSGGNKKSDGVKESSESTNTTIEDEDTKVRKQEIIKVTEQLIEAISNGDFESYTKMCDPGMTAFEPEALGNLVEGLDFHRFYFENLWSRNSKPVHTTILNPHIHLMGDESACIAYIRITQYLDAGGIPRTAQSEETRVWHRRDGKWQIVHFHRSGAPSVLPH

[9] = molecular target: Serine/threonine-protein kinase pim-1 (Homo sapiens) (UniProt P11309)
Serine/threonine-protein kinase pim-1 (Homo sapiens), sequence (P11309 whole entry, looked up, canonical isoform): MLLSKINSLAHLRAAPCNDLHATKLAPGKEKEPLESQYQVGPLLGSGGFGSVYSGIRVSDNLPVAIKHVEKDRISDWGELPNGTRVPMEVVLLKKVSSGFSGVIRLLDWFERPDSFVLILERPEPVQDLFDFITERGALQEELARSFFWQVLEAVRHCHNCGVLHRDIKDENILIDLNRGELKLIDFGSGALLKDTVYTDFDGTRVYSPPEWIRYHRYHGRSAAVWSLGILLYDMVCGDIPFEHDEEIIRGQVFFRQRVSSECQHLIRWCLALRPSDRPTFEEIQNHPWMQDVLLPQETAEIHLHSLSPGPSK

[10] = molecular target: Casein kinase I isoform gamma-2 (Homo sapiens) (UniProt P78368)
Casein kinase I isoform gamma-2 (Homo sapiens), sequence (P78368 whole entry, looked up, canonical isoform): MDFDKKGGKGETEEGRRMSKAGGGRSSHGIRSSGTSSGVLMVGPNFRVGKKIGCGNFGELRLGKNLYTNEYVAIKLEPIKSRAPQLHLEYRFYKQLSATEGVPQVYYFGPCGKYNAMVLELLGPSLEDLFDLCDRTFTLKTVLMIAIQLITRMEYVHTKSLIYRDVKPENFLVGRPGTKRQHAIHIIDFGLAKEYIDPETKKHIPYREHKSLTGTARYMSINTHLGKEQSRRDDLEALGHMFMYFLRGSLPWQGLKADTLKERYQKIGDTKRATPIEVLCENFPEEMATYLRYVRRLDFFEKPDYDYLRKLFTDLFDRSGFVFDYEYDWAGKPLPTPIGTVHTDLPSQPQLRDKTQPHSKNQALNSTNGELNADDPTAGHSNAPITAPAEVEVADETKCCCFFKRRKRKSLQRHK

[11] = molecular target: TRAF2 and NCK-interacting protein kinase (Homo sapiens) (UniProt Q9UKE5)
[12] = molecular target: Cyclin-dependent kinase-like 1 (Homo sapiens) (UniProt Q00532)
Cyclin-dependent kinase-like 1 (Homo sapiens), sequence (Q00532 whole entry): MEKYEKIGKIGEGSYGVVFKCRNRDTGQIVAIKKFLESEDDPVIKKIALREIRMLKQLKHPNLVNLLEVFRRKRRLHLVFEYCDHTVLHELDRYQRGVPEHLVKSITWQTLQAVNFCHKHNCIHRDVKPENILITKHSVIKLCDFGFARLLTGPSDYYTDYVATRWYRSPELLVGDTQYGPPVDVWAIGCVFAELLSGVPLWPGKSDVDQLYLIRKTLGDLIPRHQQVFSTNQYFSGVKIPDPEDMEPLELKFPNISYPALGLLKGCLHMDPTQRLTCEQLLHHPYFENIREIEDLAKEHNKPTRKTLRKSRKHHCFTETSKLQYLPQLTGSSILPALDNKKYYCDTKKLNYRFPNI

[13] = molecular target: Serine/threonine-protein kinase 10 (Homo sapiens) (UniProt O94804)
[14] = molecular target: T1, Mitogen-activated protein kinase kinase kinase 5 (Homo sapiens) (UniProt Q99683)
T1 sequence (whole entry): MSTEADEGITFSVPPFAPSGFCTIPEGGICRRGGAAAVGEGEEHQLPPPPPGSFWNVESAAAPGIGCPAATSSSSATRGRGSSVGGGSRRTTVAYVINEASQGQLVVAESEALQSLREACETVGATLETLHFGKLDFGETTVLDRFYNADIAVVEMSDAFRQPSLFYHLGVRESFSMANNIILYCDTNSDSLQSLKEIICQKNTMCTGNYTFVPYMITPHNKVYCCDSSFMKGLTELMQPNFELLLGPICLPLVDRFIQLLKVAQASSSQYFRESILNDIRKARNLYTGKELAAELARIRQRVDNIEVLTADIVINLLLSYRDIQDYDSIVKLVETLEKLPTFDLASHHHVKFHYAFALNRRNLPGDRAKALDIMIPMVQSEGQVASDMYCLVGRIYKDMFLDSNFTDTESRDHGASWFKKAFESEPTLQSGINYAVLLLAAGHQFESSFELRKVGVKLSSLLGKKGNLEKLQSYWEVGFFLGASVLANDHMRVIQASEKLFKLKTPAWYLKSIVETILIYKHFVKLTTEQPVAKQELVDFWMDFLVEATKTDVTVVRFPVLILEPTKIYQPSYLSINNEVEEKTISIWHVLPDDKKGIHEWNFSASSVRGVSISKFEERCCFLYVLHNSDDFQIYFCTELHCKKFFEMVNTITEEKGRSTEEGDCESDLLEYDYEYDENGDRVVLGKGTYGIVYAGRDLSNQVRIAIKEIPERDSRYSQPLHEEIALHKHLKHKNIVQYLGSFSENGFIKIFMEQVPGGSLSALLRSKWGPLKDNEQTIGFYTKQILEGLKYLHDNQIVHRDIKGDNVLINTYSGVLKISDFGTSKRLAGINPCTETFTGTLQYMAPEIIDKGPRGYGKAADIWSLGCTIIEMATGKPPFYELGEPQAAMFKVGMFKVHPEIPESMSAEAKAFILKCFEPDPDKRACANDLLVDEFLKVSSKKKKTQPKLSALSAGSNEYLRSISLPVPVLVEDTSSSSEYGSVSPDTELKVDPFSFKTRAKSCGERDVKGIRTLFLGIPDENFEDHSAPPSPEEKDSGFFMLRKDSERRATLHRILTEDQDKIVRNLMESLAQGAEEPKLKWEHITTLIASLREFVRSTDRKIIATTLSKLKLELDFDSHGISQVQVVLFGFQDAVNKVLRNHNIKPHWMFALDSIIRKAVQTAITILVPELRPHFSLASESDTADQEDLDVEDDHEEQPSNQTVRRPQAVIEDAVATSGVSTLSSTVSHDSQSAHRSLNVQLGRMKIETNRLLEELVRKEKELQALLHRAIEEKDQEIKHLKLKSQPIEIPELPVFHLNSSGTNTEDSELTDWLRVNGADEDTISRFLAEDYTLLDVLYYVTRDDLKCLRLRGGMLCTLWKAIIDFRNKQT

[15] = molecular target: Cyclin-dependent kinase 2 (Homo sapiens, UniProt P24941)
[16] = molecular target: Serine/threonine-protein kinase 26 (Homo sapiens) (UniProt Q9P289); remark: listed apart in the source
[17] = molecular target: T2, Serine/threonine-protein kinase Nek2 (Homo sapiens) (UniProt P51955)
T2 sequence (whole entry): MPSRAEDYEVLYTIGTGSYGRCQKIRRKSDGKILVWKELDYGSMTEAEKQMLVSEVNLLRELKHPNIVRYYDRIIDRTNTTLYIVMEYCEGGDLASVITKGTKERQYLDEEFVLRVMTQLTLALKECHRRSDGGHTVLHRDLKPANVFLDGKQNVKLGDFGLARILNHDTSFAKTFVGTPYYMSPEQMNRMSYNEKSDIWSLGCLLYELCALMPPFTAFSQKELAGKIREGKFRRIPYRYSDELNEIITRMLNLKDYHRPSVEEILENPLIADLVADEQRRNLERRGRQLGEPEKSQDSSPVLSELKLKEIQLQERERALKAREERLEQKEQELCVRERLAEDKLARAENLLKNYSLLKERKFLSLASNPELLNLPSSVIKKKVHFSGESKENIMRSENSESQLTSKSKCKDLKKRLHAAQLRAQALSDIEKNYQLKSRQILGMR

[18] = molecular target: Dual specificity protein kinase CLK1 (Homo sapiens) (UniProt P49759)
Dual specificity protein kinase CLK1 (Homo sapiens), sequence (P49759 whole entry, looked up): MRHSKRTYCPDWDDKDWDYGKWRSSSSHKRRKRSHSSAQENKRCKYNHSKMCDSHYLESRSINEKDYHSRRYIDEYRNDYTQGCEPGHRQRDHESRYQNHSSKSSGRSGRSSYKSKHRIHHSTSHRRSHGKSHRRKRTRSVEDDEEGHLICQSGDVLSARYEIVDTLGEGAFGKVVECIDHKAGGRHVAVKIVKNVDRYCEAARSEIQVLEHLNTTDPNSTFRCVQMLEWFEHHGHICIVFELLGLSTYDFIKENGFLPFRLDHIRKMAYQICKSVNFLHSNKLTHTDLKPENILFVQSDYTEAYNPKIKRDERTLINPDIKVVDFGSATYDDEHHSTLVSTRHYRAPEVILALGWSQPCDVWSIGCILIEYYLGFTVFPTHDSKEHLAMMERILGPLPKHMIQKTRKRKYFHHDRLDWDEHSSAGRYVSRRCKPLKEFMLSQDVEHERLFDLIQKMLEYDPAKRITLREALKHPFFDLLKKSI

Calcium/calmodulin-dependent protein kinase type II subunit gamma (Homo sapiens), sequence (Q13555 whole entry): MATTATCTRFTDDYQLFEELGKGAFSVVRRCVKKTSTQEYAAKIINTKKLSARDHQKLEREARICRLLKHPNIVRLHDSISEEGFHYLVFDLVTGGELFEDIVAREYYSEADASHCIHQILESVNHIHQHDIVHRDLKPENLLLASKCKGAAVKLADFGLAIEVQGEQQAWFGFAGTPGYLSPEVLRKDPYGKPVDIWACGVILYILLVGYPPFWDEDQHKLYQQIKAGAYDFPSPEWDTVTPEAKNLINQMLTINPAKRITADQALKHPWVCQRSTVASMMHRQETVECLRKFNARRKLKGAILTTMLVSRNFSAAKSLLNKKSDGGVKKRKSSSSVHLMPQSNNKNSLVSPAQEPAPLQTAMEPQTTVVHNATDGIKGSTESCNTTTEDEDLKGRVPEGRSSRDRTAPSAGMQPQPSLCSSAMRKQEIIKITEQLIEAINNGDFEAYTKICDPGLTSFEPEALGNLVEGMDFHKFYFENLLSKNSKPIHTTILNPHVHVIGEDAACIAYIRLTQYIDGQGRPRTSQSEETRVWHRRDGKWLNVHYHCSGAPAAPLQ
Glycogen synthase kinase-3 beta, sequence (P49841 whole entry, looked up): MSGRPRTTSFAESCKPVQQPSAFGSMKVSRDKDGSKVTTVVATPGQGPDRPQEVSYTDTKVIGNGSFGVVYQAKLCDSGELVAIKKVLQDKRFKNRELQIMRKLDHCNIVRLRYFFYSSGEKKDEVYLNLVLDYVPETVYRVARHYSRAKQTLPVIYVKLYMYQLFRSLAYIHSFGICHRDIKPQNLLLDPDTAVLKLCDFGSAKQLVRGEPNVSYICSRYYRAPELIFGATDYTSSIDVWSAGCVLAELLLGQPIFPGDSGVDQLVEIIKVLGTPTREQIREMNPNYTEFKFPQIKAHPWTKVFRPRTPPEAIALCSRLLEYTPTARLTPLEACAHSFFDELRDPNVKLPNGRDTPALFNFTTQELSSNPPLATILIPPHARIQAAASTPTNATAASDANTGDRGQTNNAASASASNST

| Compound | ΔTm [1] | ΔTm [2] | ΔTm [3] | ΔTm [4] | ΔTm [5] | ΔTm [6] | ΔTm [7] | ΔTm [8] | ΔTm [9] | ΔTm [10] | ΔTm [11] | ΔTm [12] | ΔTm [13] | ΔTm [14] | ΔTm [15] | ΔTm [16] | ΔTm [17] | ΔTm [18] |
| --- | --- | --- | --- | --- | --- | --- | --- | --- | --- | --- | --- | --- | --- | --- | --- | --- | --- | --- |
| CCCCc1c(-c2ccc(O)cc2)[nH]c2nccnc12 [ALOISINE A] | 1.1 °C | 8.3 °C | 2.1 °C | 0.5 °C | 2.8 °C | 1.8 °C | 4.1 °C | 0.1 °C | 1.7 °C | 2.2 °C | 0 °C | 0.1 °C | 5 °C | 0.4 °C | 4.7 °C | 1.1 °C | -0.4 °C | 3.5 °C |
| c1ccc(-c2n[nH]c3c2oc2ccccc23)cc1 | 0.4 °C | 0.8 °C | -0.4 °C | -0.3 °C | 2.2 °C | -0.2 °C | 3.4 °C | 0.3 °C | -0.5 °C | 1 °C | 0.4 °C | 0.1 °C | 1.9 °C | 1.4 °C | 0.7 °C | 0.6 °C | 0.1 °C | 1.8 °C |
| COc1cc2ncnc(Nc3ccc(NC(=O)c4ccccc4)cc3)c2cc1OC [ANILINOQUINAZOLINE1] | 0.2 °C | 2.9 °C | 0 °C | 0.6 °C | -0.5 °C | 0.4 °C | 0 °C | 0 °C | 0.7 °C | 0.5 °C | 0.9 °C | 0 °C | 0.1 °C | 0.1 °C | -0.5 °C | 1.8 °C | 0.3 °C | 1 °C |
| Nc1cccc(-c2cc3c(Oc4cccc(O)c4)ncnc3[nH]2)c1 | 0.1 °C | 7.6 °C | 2.7 °C | 1.3 °C | 4.4 °C | 0.1 °C | 2.2 °C | 0.5 °C | 0.7 °C | 1.2 °C | -0.4 °C | 0.6 °C | 5.9 °C | 0.5 °C | 0.9 °C | 0.8 °C | 2.6 °C | 1.8 °C |
| O=C1NC(=O)C(c2cn(CCCn3ccnc3)c3ccccc23)=C1Nc1ccccc1 | 0.9 °C | 8.4 °C | 0.4 °C | -0.4 °C | 1.2 °C | 0.1 °C | 3.1 °C | 1.7 °C | 3.1 °C | 1 °C | -0.7 °C | 0.3 °C | 2 °C | 0.6 °C | 0.4 °C | 2 °C | 1.2 °C | 5.8 °C |
| O=C(O)c1cc(N(Cc2ccccc2O)Cc2cc(O)ccc2O)ccc1O [LAVENDUSTIN A] | -0.1 °C | -0.1 °C | 0.5 °C | -0.3 °C | 0.9 °C | 0.3 °C | 0.4 °C | 1.3 °C | 1.1 °C | 0.6 °C | 0 °C | -0.3 °C | 0.1 °C | 0.2 °C | 1.3 °C | 2.1 °C | 1.3 °C | 0.5 °C |
| Cc1ccc(NC2=CC(=O)c3sc(C)nc3C2=O)cc1 | -2 °C | 0.4 °C | -2 °C | -2.1 °C | -0.2 °C | 0.1 °C | -0.5 °C | -0.7 °C | -1.3 °C | 0 °C | -1.4 °C | -1.3 °C | -0.7 °C | -0.2 °C | 0.2 °C | -0.5 °C | -1.2 °C | -0.8 °C |
| CN(c1cccnc1)c1cc2c(Nc3ccc(F)c(Cl)c3)c(C#N)cnc2cn1 | 1.9 °C | 6.3 °C | 2.1 °C | -0.2 °C | 0.7 °C | 2.7 °C | 0.7 °C | 3.4 °C | 0.1 °C | 0.4 °C | -1.2 °C | 5.4 °C | 2.8 °C | 1.4 °C | -0.5 °C | 1.3 °C | 0.7 °C | 4.9 °C |
| CCCNC(=O)Nc1ccc(Oc2ncnc3cc(OC)c(OC)cc23)cc1Cl [KRN-633] | 0.3 °C | 0.1 °C | 0.2 °C | 0.8 °C | 0.1 °C | 0.3 °C | -0.1 °C | 0.8 °C | 0.5 °C | 0.5 °C | 0.2 °C | 0.8 °C | 0.4 °C | 0.3 °C | -0.4 °C | 1.2 °C | -0.3 °C | -1.7 °C |
| O=C1NC(=O)c2c1c1c3ccccc3[nH]c1n1cncc21 [ISOGRANULATIMIDE] | 2.5 °C | 8.8 °C | 5.3 °C | -0.5 °C | 9.3 °C | 1 °C | 5.4 °C | 3.6 °C | 9 °C | 3.6 °C | 0 °C | 3.7 °C | 5.4 °C | 2.6 °C | 5.2 °C | 2.5 °C | 2.4 °C | 4.5 °C |
| O=C(Nc1cccc(Nc2nccc(Nc3cccc(C(F)(F)F)c3)n2)c1)C1CC1 [ANILINOPYRIMIDINE1] | 0.2 °C | 1.1 °C | 0.8 °C | -0.9 °C | 3.3 °C | 0.6 °C | 0.7 °C | 0.3 °C | 7.3 °C | 6.5 °C | 0.2 °C | 1.6 °C | 1 °C | 0.2 °C | 0 °C | 1.5 °C | 1.3 °C | 1.9 °C |
